# Experimental data taken from ChEMBL document CHEMBL5291721, “A preclinical secondary pharmacology resource illuminates target-adverse drug reaction associations of marketed drugs” (Nat Commun, 2023).
# Tests used:
# Progesterone receptor = biological target: T1, Progesterone receptor (Homo sapiens, UniProt P06401); format: functional
# T1 sequence (P06401 whole entry): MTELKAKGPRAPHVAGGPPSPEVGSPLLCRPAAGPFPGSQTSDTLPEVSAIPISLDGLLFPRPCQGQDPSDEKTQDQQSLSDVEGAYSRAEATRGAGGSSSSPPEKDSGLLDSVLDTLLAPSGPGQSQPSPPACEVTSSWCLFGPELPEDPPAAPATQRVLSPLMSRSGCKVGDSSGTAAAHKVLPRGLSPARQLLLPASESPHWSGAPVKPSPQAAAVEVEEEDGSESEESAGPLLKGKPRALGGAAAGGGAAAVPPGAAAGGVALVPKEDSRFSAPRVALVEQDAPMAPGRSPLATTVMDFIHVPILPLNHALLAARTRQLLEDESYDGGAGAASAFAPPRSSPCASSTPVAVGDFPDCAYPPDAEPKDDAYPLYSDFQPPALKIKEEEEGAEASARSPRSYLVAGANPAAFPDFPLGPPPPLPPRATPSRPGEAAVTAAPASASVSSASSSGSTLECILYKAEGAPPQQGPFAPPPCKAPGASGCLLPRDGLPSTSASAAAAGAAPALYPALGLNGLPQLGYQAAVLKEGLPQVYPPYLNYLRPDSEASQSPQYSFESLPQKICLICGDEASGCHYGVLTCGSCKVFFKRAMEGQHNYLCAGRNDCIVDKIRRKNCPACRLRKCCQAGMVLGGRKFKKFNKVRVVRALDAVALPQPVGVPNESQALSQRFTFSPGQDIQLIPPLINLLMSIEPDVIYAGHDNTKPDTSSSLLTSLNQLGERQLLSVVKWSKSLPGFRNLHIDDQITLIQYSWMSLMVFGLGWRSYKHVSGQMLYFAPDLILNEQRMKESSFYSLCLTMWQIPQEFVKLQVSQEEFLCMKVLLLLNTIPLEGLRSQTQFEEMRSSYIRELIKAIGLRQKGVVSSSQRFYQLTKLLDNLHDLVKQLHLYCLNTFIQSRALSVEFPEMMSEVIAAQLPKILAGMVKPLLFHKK
# [1] = biological target: T2, Alpha-2A adrenergic receptor (Homo sapiens, UniProt P08913)
# T2 sequence (P08913 whole entry): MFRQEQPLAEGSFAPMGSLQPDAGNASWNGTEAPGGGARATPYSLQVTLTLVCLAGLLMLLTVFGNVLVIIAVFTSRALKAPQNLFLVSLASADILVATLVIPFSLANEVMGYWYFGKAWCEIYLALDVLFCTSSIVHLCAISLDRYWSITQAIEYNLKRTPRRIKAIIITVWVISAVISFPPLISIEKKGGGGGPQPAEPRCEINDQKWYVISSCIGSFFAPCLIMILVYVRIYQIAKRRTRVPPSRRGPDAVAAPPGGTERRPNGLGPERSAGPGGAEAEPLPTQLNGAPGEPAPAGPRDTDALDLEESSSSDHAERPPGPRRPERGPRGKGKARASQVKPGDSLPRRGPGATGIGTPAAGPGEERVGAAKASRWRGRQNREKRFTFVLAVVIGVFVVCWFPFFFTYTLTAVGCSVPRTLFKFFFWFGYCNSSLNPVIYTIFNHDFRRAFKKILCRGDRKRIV
# [2] = biological target: T3, Muscarinic acetylcholine receptor M2 (Homo sapiens, UniProt P08172)
# T3 sequence (P08172 whole entry): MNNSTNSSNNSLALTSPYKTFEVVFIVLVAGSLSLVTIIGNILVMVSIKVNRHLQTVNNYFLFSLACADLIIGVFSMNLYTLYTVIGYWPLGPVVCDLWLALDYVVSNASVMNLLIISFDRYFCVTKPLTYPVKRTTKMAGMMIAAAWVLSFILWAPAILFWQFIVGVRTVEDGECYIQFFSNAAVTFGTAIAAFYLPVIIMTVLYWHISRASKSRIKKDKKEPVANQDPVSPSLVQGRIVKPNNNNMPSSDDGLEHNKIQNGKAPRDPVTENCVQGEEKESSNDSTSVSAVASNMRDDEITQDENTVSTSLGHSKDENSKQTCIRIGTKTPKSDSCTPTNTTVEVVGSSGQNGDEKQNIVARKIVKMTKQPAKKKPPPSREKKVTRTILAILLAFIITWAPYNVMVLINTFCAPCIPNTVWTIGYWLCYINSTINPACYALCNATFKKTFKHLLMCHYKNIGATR
# Thromboxane A2 receptor = biological target: T4, Thromboxane A2 receptor (Homo sapiens, UniProt P21731); format: functional, cell-based
# T4 sequence (P21731 whole entry): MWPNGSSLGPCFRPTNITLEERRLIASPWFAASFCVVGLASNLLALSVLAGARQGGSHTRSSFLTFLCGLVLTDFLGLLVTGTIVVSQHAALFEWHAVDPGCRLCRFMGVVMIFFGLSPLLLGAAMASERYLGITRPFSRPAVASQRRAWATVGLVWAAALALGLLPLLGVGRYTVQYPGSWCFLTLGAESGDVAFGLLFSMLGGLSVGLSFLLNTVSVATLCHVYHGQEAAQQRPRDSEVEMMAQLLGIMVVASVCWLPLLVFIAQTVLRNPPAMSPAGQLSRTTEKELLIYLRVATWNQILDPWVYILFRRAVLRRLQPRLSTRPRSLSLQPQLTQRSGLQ
# Also: assay procedure not described here.
SMILES,AC50 (Progesterone receptor) [µM],AC50 [1] [µM],AC50 [2] [µM],AC50 (Thromboxane A2 receptor) [µM]
CN(C)CCC=C1c2ccccc2C(C)(C)c2ccccc21,> 30,–,–,–
COC(c1ccccc1)(c1ccccc1)[C@H](Oc1nc(C)cc(C)n1)C(=O)O [AMBRISENTAN],–,> 30,> 30,> 30
CNC(=O)c1ccccc1Sc1ccc2c(/C=C/c3ccccn3)n[nH]c2c1 [AXITINIB],> 30,–,–,–
CC[C@H]1OC(=O)[C@H](C)[C@@H](O[C@H]2C[C@@](C)(OC)[C@@H](O)[C@H](C)O2)[C@H](C)[C@@H](O[C@@H]2O[C@H](C)C[C@H](N(C)C)[C@H]2O)[C@](C)(O)C[C@@H](C)CN(C)[C@H](C)[C@@H](O)[C@]1(C)O [AZITHROMYCIN],–,> 30,> 30,> 30
CCc1oc2ccccc2c1C(=O)c1cc(I)c(O)c(I)c1 [BENZIODARONE],–,29.9,> 30,> 1
CN(C)CCn1nnnc1SCC1=C(C(=O)O)N2C(=O)[C@@H](NC(=O)Cc3csc(N)n3)[C@H]2SC1 [CEFOTIAM],–,> 30,> 30,> 30
COCc1c(C(C)C)nc(C(C)C)c(/C=C/[C@@H](O)C[C@@H](O)CC(=O)O)c1-c1ccc(F)cc1 [CERIVASTATIN],–,> 30,> 30,20.1
Oc1c(Cl)cc(Cl)c2cccnc12 [CHLOROXINE],–,> 30,> 30,> 30
C[N+](C)(C)CCO [CHOLINE],–,> 30,> 30,> 30
CN(C)[C@@H](c1cccc(O)c1)[C@H]1CCCC[C@H]1O [CIRAMADOL],–,> 30,> 30,> 30
CN(C)CC(c1ccc(O)cc1)C1(O)CCCCC1 (stereo not given) [DESVENLAFAXINE],–,> 30,> 30,> 30
CN(C)CCN1C(=O)c2ccccc2N(C)c2ccccc21 [DIBENZEPIN],–,9.47,2.62,> 30
O=C(Cc1ccc(-c2ccccc2)cc1)Nc1ccccn1 [DIFENPIRAMIDE],–,> 30,> 30,> 30
N[C@H](C(=O)O)[C@H](O)c1ccc(O)c(O)c1 [DROXIDOPA],–,> 30,> 30,> 30
C[C@]12CC[C@@H]3c4ccc(O)cc4CC[C@H]3[C@@H]1C[C@@H](O)[C@@H]2O [ESTRIOL],–,> 30,> 30,> 30
Cc1cc(C#N)cc(C)c1Oc1nc(Nc2ccc(C#N)cc2)nc(N)c1Br [ETRAVIRINE],–,20,22.6,> 3
O=C(O)c1cc(O)ccc1O [GENTISIC ACID],–,> 30,> 30,> 30
CCC1=C(C)CN(C(=O)NCCc2ccc(S(=O)(=O)NC(=O)N[C@H]3CC[C@H](C)CC3)cc2)C1=O [GLIMEPIRIDE],–,> 30,> 30,18.5
CC(C)Nc1ncccn1 [ISAXONINE],–,> 30,> 30,> 30
CCC(C)n1ncn(-c2ccc(N3CCN(c4ccc(OCC5COC(Cn6cncn6)(c6ccc(Cl)cc6Cl)O5)cc4)CC3)cc2)c1=O (stereo not given) [ITRACONAZOLE],> 30,–,–,–
c1ccc([C@H]2CN3CCSC3=N2)cc1 [LEVAMISOLE],> 30,–,–,–
N[C@@H](C(=O)N[C@@H]1C(=O)N2C(C(=O)O)=C(Cl)CC[C@H]12)c1ccccc1 [LORACARBEF ANHYDROUS],–,> 30,> 30,> 30

SMILES,AC50 (Progesterone receptor) [µM],AC50 [1] [µM],AC50 [2] [µM],AC50 (Thromboxane A2 receptor) [µM]
C[C@H]1CNCCc2ccc(Cl)cc21 [LORCASERIN],> 30,–,–,–
CNC1Cc2ccccc2N(C)c2ccccc21 (stereo not given) [METAPRAMINE],> 30,–,–,–
OCCN1C[C@H](O)[C@@H](O)[C@H](O)[C@H]1CO [MIGLITOL],–,> 30,> 30,> 30
CC(=O)N[C@@H]1[C@@H](O)[C@H](O)[C@@H](CO)O[C@H]1O [N-ACETYLGLUCOSAMINE],–,> 30,> 30,> 30
O=C(CCNNC(=O)c1ccncc1)NCc1ccccc1 [NIALAMIDE],–,> 30,> 30,> 30
COc1ccc(CC(C)(C)NC[C@H](O)c2cc(O)cc3c2OCC(=O)N3)cc1 [OLODATEROL],> 30,–,–,–
CC[N+]1(C)[C@@H]2CC(OC(=O)[C@H](CO)c3ccccc3)C[C@H]1[C@@H]1O[C@@H]12 (stereo not given in full) [OXITROPIUM],–,> 30,0.003,> 30
CC(C)(C)NC[C@H](O)COc1ccccc1C1CCCC1 [PENBUTOLOL],–,0.966,> 30,16.1
CC(C)(S)[C@@H](N)C(=O)O [PENICILLAMINE],–,> 30,> 30,> 30
C1CCC(C(CC2CCCCN2)C2CCCCC2)CC1 (stereo not given) [PERHEXILINE],> 30,–,–,–
CN(C)S(=O)(=O)c1ccc2c(c1)N(CCCN1CCC(CCO)CC1)c1ccccc1S2 [PIPOTIAZINE],–,0.313,1.72,15.7
c1cnc(N2CCN(Cc3ccc4c(c3)OCO4)CC2)nc1 [PIRIBEDIL],> 30,–,–,–
COc1cc(NC(C)CCCN)c2ncccc2c1 (stereo not given) [PRIMAQUINE],–,–,–,> 30
C=C[C@H]1C[N@@]2CC[C@H]1C[C@H]2[C@H](O)c1ccnc2ccc(OC)cc12 [QUININE],–,5.45,> 30,> 30
CCC(=O)NCC[C@@H]1CCc2ccc3c(c21)CCO3 [RAMELTEON],–,> 30,> 30,> 30
CO[C@H]1C[C@@H]2CC[C@@H](C)[C@@](O)(O2)C(=O)C(=O)N2CCCC[C@H]2C(=O)O[C@H]([C@H](C)C[C@@H]2CC[C@@H](O)[C@H](OC)C2)CC(=O)[C@H](C)/C=C(\C)[C@@H](O)[C@@H](OC)C(=O)[C@H](C)C[C@H](C)/C=C/C=C/C=C/1C [SIROLIMUS],–,> 30,> 30,> 30
Cc1cn([C@H]2C=C[C@@H](CO)O2)c(=O)[nH]c1=O [STAVUDINE],–,> 30,> 30,> 30
Cn1nnc2c(C(N)=O)ncn2c1=O [TEMOZOLOMIDE],> 30,–,–,–
CCOC(=O)[C@H](CCc1ccccc1)N[C@@H](C)C(=O)N1[C@H](C(=O)O)C[C@H]2CCCC[C@@H]21 [TRANDOLAPRIL],–,> 30,> 30,> 30
O=C(O[C@H]1C[C@H]2CC[C@@H](C1)[N+]21CCCC1)C(O)(c1ccccc1)c1ccccc1 [TROSPIUM],> 30,–,–,–
N[C@@H]1[C@H]2CN(c3nc4c(cc3F)c(=O)c(C(=O)O)cn4-c3ccc(F)cc3F)C[C@@H]12 [TROVAFLOXACIN],> 30,–,–,–
CCCCCCOc1nsnc1C1=CCCN(C)C1 [XANOMELINE],–,1.39,–,> 30
